Source: patent publication US20040116456A1, “Remedies for psychoneurosis” (priority 2001, published 2004)
Counter-ions that a name gives are not always drawn.

Test system: restless legs syndrome
Assay: Oral preparation given to patients diagnosed with restless legs syndrome
Assay type: in vivo, human
Details: 10 μg oral soft capsule; for time until abnormal sensation disappeared after taking the preparation: RLS patient
Procedure: A solution containing 10 μg of (−)-17-(cyclopropylmethyl)-3,14β-dihydroxy-4,5α-epoxy-6β[N-methyl-trans-3-(3-furyl)acrylamide]morphinan hydrochloric acid salt 1 [drawing 10]
was encapsulated into a soft capsule made of gelatin to obtain an oral preparation. This oral preparation was administered to two patients who had been diagnosed as restless legs syndrome. Both of the two patients complained abnormal itchy sensation on the lower limbs and sleep is sometimes disturbed. By taking the oral preparation, the abnormal sensation disappeared 2 hours after taking the preparation in one patient, and 4 hours after taking the preparation in another patient.

CN(C(=O)/C=C/c1ccoc1)[C@@H]1CC[C@@]2(O)C3Cc4ccc(O)c5c4[C@@]2(CCN3CC2CC2)[C@H]1O5 (single isomer, unassigned; (-)) [Compound 1, (−)-17-(cyclopropylmethyl)-3,14β-dihydroxy-4,5α-epoxy-6β[N-methyl-trans-3-(3-furyl)acrylamide]morphinan hydrochloric acid salt]
time until abnormal sensation disappeared after taking the preparation (another patient): 4 h | time until abnormal sensation disappeared after taking the preparation (one patient): 2 h | duration of the effect for eliminating the abnormal sensation (both of the two RLS patients): ≥ 24 h | sleep disturbance in the night (both of the two RLS patients): sleep disturbance did not occur | therapeutic effect against restless legs syndrome (two RLS patients): clearly had therapeutic effect against restless legs syndrome
